Results as given in US9732094B2, “Arylquinazolines” (Merck Patent GmbH, priority 2013, dated 2017).
Read-outs that look alike come from different tables or passages of the source.

Legend:
[1] = target: Kv11.1 (hERG) (Homo sapiens (Human), UniProt Q12809); assay: Kv11.1 (hERG) ion channel activity (patch clamp assay), HEK293 cells transfected with hERG gene; settings: hERG patch clamp assay (cells without asterisk)
Procedure: C) Kv11.1 (hERG) Ion Channel Activity (Patch Clamp Assay)
The patch-clamp measurement was carried out at room temperature in whole-cell configuration on human embryonic kidney cells (HEK293) which have been transfected in a stable manner with the hERG gene.
The whole-cell configurations were carried out using an automated patch clamp device (Patchliner™, Nanion Technologies, Munich). […] The glass chip has a hole of defined size to which the cell is transferred into the Gigaseal by application of a reduced pressure and brought into the whole-cell configuration. Buffer, cell suspension and test substances were added to microchannels of the chip using a Teflon-coated pipette. The cells were clamped to a holding potential of −80 mV. For measurement of substance-promoted inhibition of the Kv11.1 channel, the following voltage protocol was applied at 10-second intervals: 51 ms/−80 mV, 500 ms/+40 mV, 500 ms/−40 mV, 200 ms/−80 mV. The leakage current is subtracted by means of the P4 method. The cells were resuspended in extracellular buffer (EC) and applied to the chip. After the cell had been collected, the seal was improved by addition of a seal enhancer buffer. As soon as the whole-cell configuration had been reached, the seal enhancer buffer was washed out and replaced by extracellular buffer. The measurement started in EC for 1.5 min. DMSO (vehicle control, 0.1% of DMSO) was then applied, and the control current was recorded for 3 min. The test substance was subsequently added twice in the same concentration, and the potassium current was measured for 3.5 min in each case.
The reference substance used was the Kv11.1 (hERG) ion channel blocker quinidine. The effects of test substances and quinidine were standardised to the associated vehicle control. The effect on the Kv11.1 (hERG) channel activity was assessed from the potassium current at −40 mV. For the calculation, the current was evaluated for the respective final trace.
During the measurement, an aliquot of the test substance was taken for concentration determination. The sample was measured immediately by HPLC, and the final concentration was determined from a calibration curve.

[2] = target: DNA-PK (Homo sapiens (Human), UniProt P78527); assay: DNA-PK assay (biochemical), flashplate 33P-ATP kinase assay; settings: biochemical DNA-PK assay
Outline: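 Reactions ran in streptavidin-coated flashplates and were halted by 200 mM EDTA, with a further 30 min at room temperature before saline washing.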

[3] = target: DNA-PK phosphorylation at serine 2056 (Homo sapiens (Human), UniProt P78527); assay: DNA-PK phosphorylation at serine 2056 (cellular), bleomycin-treated HCT116 cells, ELISA; assay type: cell-based; settings: cellular DNA-PK phosphorylation at serine 2056, HCT116; read-out: IC50 pDNA-PK
Outline: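 Test compounds and bleomycin (10 μM) are added to adherent HCT116 cells for 6 h. Detection uses an HRP-based chemiluminescent ELISA, with phospho-DNA-PK signals standardised to total protein.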

Sequence of Kv11.1 (hERG) (Q12809 whole entry): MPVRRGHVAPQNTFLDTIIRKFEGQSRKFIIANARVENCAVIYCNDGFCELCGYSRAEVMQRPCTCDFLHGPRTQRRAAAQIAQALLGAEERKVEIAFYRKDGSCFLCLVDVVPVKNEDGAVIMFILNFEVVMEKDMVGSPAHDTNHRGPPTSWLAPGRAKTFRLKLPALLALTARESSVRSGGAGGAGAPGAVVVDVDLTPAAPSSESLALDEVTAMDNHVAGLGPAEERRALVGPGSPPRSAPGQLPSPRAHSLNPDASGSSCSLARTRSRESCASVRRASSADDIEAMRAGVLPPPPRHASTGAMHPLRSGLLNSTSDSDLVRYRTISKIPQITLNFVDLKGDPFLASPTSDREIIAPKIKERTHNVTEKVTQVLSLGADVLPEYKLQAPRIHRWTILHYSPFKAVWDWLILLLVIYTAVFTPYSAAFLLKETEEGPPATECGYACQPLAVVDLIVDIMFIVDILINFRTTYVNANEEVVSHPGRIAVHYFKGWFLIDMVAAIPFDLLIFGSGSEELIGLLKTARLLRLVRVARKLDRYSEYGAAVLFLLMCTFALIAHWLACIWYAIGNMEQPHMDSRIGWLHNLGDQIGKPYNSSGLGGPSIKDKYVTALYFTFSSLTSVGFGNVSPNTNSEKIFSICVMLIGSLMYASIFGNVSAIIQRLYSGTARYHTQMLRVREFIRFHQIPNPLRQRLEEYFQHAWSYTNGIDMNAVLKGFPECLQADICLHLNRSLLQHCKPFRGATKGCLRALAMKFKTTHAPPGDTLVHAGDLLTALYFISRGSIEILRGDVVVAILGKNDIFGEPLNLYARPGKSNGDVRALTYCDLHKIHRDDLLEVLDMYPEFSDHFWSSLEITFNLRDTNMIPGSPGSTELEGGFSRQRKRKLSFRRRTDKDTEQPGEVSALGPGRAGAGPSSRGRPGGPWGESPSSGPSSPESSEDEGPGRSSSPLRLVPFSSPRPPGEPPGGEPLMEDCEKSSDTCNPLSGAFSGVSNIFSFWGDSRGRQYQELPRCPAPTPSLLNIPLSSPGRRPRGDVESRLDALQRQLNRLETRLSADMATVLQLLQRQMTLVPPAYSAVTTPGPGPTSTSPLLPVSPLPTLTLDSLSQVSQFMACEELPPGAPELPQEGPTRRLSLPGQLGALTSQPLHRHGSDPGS

| SMILES | Ki ([1]; read-out: Ki [Kv1.11 hERG]) | IC50 [2] | IC50 [3] | Ki ([1]; Ki [Kv1.11 hERG]) |
| --- | --- | --- | --- | --- |
| COc1nccnc1C(C(N)=O)c1cc(-c2ncnc3cc(N4CCOCC4)ccc23)c(F)cc1F (stereo not drawn) [Example 319, 2-[2,4-Difluoro-5-(7-morpholin-4-ylquinazolin-4-yl)phenyl]-2-(3-methoxypyrazin-2-yl)acetamide] | > 25 µM | 0.007 to 0.03 µM | 5 to 10 µM | – |
| COc1nccnc1C(C(N)=O)c1cc(-c2ncnc3cc(N4CCOCC4)ccc23)c(F)cc1Cl (stereo not drawn) [Example 320, 2-[2-Chloro-4-fluoro-5-(7-morpholin-4-yl-quinazolin-4-yl)-phenyl]-2-(3-methoxy-pyrazin-2-yl)acetamide] | > 25 µM | 0.007 to 0.03 µM | 0.5 to 5 µM | – |
| NC(=O)C(c1ccc(F)c(-c2ncnc3cc(N4CCOCC4)ccc23)c1)c1c(F)cncc1F (stereo not drawn) [Example 321, 2-(3,5-Difluoro-pyridin-4-yl)-2-[4-fluoro-3-(7-morpholin-4-yl-quinazolin-4-yl)-phenyl]acetamide] | – | 0.007 to 0.03 µM | 0.5 to 5 µM | 15 to 25 µM |
| NC(=O)C(c1ccc(F)c(-c2ncnc3cc(N4CCOCC4)ccc23)c1)c1cncc(F)c1Cl (stereo not drawn) [Example 322, 2-(4-Chloro-5-fluoro-pyridin-3-yl)-2-[4-fluoro-3-(7-morpholin-4-yl-quinazolin-4-yl)-phenyl]acetamide] | – | 0.003 to 0.007 µM | 0.5 to 5 µM | 10 to 15 µM |
| NC(=O)C(c1ccc2nccn2n1)c1cc(-c2ncnc3cc(N4CCOCC4)ccc23)c(F)cc1Cl (stereo not drawn) [Example 323, 2-[2-Chloro-4-fluoro-5-(7-morpholin-4-yl-quinazolin-4-yl)-phenyl]-2-imidazo-[1,2-b]pyridazin-6-yl-acetamide] | – | 0.003 to 0.007 µM | 0.5 to 5 µM | 15 to 25 µM |
| Cc1nccnc1C(C(N)=O)c1cc(-c2ncnc3cc(N4CCOCC4)ccc23)c(F)cc1Cl (stereo not drawn) [Example 324, 2-[2-Chloro-4-fluoro-5-(7-morpholin-4-yl-quinazolin-4-yl)-phenyl]-2-(3-methyl-pyrazin-2-yl)-acetamide] | > 25 µM | 0.003 to 0.007 µM | 0.5 to 5 µM | – |
| COc1ccc(C(C(N)=O)c2cc(-c3ncnc4cc(N5CCOCC5)ccc34)c(F)cc2Cl)nn1 (stereo not drawn) [Example 325, 2-[2-Chloro-4-f1uoro-5-(7-morpholin-4-yl-quinazolin-4-yl)-phenyl]-2-(6-methoxypyridazin-3-yl)acetamide] | – | > 0.03 µM | 10 to 30 µM | 15 to 25 µM |
| Cn1nc(C(O)c2ccc(F)c(-c3ncnc4cc(N5CCOCC5)ccc34)c2)ccc1=O (stereo not drawn) [Example 326, 6-{[4-Fluoro-3-(7-morpholin-4-yl-quinazolin-4-yl)-phenyl]hydroxy-methyl}-2-methyl-2H-pyridazin-3-one] | > 25 µM | 0.007 to 0.03 µM | 0.5 to 5 µM | – |
| Cc1nccnc1C(C(N)=O)c1ccc(F)c(-c2ncnc3cc(N4CCOCC4)ccc23)c1 (stereo not drawn) [Example 327, 2-[4-Fluoro-3-(7-morpholin-4-yl-quinazolin-4-yl)-phenyl]-2-{3-methyl-pyrazin-2-yl)-acetamide] | > 25 µM | 0.007 to 0.03 µM | 10 to 30 µM | – |
| OC(c1ccc(F)c(-c2ncnc3cc(N4CCOCC4)ccc23)c1)c1nccc2ccoc12 (stereo not drawn) [Example 328, [4-Fluoro-3-(7-morpholin-4-yl-quinazolin-4-yl)-phenyl)furo[2,3-c]-pyridin-7-ylmethanol] | < 10 µM | < 0.003 µM | < 0.5 µM | – |
| Cc1nccnc1C(C(N)=O)c1cc(-c2ncnc3cc(N4CCOCC4)ccc23)c(F)cc1F (stereo not drawn) [Example 329, 2-[2,4-Difluoro-5-(7-morpholin-4-yl-quinazolin-4-yl)-phenyl]-2-(3-methyl-pyrazin-2-yl)-acetamide] | > 25 µM | 0.007 to 0.03 µM | 5 to 10 µM | – |
| Oc1ncnc(C(O)c2cc(-c3ncnc4cc(N5CCOCC5)ccc34)ccc2Cl)c1Cl (stereo not drawn) [Example 330, 5-Chloro-6-{[2-chloro-5-(7-morpholin-4-yl-quinazolin-4-yl)-phenyl]hydroxy-methyl}pyrimidin-4-ol] | > 25 µM | 0.007 to 0.03 µM | 10 to 30 µM | – |
